In US12503439B2, “Heteroaryl compounds for the treatment of pain” (VERTEX PHARMACEUTICALS INCORPORATED, priority 2022, dated 2025):

Target: truncated form of human NaV 1.8 with full channel activity (expressed in HEK cells) (Homo sapiens, UniProt Q9Y5Y9)
Experiment: E-VIPR assay detecting and measuring NaV inhibition properties (electrical stimulation, membrane potential FRET dyes)
Type: cell-based
Conditions: HEK cells expressing truncated human NaV 1.8, KIR2.1 BacMam; 11-point dose response; 30 min compound incubation; stimulation 10 Hz for 10 s; read-out: measured IC50 value in the E-VIPR Assay
Source text: E-VIPR Assay Detecting and Measuring NaV Inhibition Properties
Sodium ion channels are voltage-dependent proteins that can be activated by inducing membrane voltage changes by applying electric fields. […] The instrument comprises a microtiter plate handler, an optical system for exciting the coumarin dye while simultaneously recording the coumarin and oxonol emissions, a waveform generator, a current- or voltage-controlled amplifier, and parallel electrode pairs that are inserted into assay plate wells. Under integrated computer control, this instrument passes user-programmed electrical stimulus protocols to cells within the wells of the microtiter plate.
16-20 hours prior to running the assay on E-VIPR, HEK cells expressing a truncated form of human NaV 1.8 with full channel activity were seeded into microtiter 384-well plates, pre-coated with matrigel, at a density of 25,000 cells per well. 2.5-5% KIR2.1 BacMam virus was added to the final cell suspension before seeding into cell plates. […] Cells were expanded in 5-layer CellSTACK culture chambers or cell culture flasks with vented caps, with 90-95% humidity and 5% CO2.
Reagents and Stock Solutions:
The concentration used can be dependent on viral titer of each batch.
Human Serum (HS, Millipore #S1P1-01KL, or Sigma SLBR5469V and SLBR5470V as a 50%/50% mixture, for 25% assay final concentration)
Hexyl Dye Solution (2× Concentration):
Bath 1 Buffer containing 0.5% β-cyclodextrin (made fresh prior to each use, Sigma #C4767), 8 μM CC2-DMPE and 2 μM DiSBAC6(3). The solution was made by adding 10% Pluronic F127 stock equal to combined volumes of CC2-DMPE and DiSBAC6(3). The order of preparation was first mix Pluronic and CC2-DMPE, then add DiSBAC6(3), then while vortexing add Bath 1/β-Cyclodextrin.
Assay Protocol (7 Key Steps):
The compound plate was backfilled with 45 μL per well of Compound Loading Buffer resulting in a 240-fold dilution of compound following a 1:1 transfer of compound into the cell plate (see Step 6). […] This assay dilution protocol was adjusted to enable a higher dose range to be tested in the presence of HS or if the final assay volume was altered. • 2) Hexyl Dye Solution was prepared. • 3) Cell plates were prepared. On the day of the assay, the media was aspirated, and the cells were washed three times with 80 μL of Bath-1 buffer, maintaining 25 μL residual volume in each well. • 4) 25 μL per well of Hexyl Dye Solution was dispensed into the cell plates. The cells were incubated for 20 minutes at room temperature or ambient conditions in darkness. • 5) 45 μL per well of Compound Loading Buffer was dispensed into compound plates. • 6) The cell plates were washed three times with 80 μL per well of Bath-1 Buffer, leaving […] of residual volume. Then 25 μL per well from compound plate was transferred to each cell plate. The mixture was incubated for 30 minutes at room temperature/ambient conditions. • 7) The cell plate containing compound was read on E-VIPR using the current-controlled amplifier to deliver stimulation wave pulses using a symmetrical biphasic waveform. […] A pre-stimulus recording was performed for each well for 0.5 seconds to obtain the un-stimulated intensities baseline. The stimulatory waveform was followed by 0.5 seconds of post-stimulation recording to examine the relaxation to the resting state. All E-VIPR responses were measured at 200 Hz acquisition rate. Data Analysis:
The response as a function of time was reported as the ratios obtained using the following formula: […]
The data were normalized by calculating the initial (Ri) and final (Rf) ratios. These were the average ratio values during part or all of the pre-stimulation period and during sample points during the stimulation period. The fluorescence ratio (Rf/Ri) was then calculated and reported as a function of time.
Control responses were obtained by performing assays in the presence of the positive control, and in the absence of pharmacological agents (DMSO vehicle negative control).

Chain of truncated form of human NaV 1.8 with full channel activity (expressed in HEK cells) (Q9Y5Y9 126-1722 limits assumed): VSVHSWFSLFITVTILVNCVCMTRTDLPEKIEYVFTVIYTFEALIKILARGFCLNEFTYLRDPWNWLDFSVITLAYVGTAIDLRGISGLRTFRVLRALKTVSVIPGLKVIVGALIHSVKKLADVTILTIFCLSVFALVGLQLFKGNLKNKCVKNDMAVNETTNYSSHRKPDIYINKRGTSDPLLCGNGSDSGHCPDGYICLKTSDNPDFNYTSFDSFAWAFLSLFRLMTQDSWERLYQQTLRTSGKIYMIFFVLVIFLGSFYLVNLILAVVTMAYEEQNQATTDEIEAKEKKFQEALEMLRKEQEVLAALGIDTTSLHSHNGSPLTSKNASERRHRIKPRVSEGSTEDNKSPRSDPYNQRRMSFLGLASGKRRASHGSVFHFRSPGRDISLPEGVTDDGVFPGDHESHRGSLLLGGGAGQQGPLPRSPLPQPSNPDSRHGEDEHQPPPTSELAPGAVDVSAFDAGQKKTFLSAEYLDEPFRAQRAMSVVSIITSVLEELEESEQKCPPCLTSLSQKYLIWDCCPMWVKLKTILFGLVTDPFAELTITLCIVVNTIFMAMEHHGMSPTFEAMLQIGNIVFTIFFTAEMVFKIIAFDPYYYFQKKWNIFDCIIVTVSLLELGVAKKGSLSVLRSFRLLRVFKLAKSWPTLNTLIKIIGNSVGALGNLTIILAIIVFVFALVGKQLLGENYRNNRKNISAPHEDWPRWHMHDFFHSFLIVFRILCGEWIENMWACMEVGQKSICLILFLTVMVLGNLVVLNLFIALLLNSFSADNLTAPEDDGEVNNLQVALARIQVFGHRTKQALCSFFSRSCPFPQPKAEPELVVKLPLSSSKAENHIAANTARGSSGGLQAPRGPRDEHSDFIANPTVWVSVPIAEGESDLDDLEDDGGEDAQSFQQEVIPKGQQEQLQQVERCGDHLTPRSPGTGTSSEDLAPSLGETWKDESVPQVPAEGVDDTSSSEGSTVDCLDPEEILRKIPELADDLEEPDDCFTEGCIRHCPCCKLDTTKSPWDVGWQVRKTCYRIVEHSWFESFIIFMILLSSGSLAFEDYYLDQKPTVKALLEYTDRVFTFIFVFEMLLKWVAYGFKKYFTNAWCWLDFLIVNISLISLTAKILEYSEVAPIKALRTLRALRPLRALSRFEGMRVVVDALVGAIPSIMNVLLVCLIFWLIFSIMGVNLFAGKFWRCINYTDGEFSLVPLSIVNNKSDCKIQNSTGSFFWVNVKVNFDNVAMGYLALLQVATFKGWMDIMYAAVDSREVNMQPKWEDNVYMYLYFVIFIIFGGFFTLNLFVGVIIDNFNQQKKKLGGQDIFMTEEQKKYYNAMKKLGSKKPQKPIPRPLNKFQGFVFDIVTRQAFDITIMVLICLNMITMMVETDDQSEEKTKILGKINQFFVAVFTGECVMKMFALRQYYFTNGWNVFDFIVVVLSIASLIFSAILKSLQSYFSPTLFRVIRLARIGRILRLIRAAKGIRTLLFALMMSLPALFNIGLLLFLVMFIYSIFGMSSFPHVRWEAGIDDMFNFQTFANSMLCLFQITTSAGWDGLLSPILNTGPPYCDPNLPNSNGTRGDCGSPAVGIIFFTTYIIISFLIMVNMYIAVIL

IC50 [µM]	SMILES
0.5 to 2	N#Cc1nccc2[nH]c(-c3cc4ccccc4nc3N3CCC(F)(F)C3)cc(=O)c12 [Compound 282, 2-[2-(3,3-difluoropyrrolidin-1-yl)-3-quinolyl]-4-oxo-1H-1,6-naphthyridine-5-carbonitrile]
≥ 5	O=c1cc(-c2cc(C(F)(F)F)ncc2[C@H]2CC[C@H](C(F)(F)F)CC2)[nH]c2ccncc12 [Compound 305, 2-[2-(trifluoromethyl)-5-[4-(trifluoromethyl)cyclohexyl]-4-pyridyl]-1H-1,6-naphthyridin-4-one]
≥ 5	CCN(c1nc2ccccc2cc1-c1cc(=O)c2c(C(N)=O)nccc2[nH]1)C1CCC1 [Compound 303, 2-[2-[cyclobutyl(ethyl)amino]-3-quinolyl]-4-oxo-1H-1,6-naphthyridine-5-carboxamide]
0.5 to 2	C=C(C)c1c(-c2c(C)cc(C(C)(C)C)cc2Oc2ccc(F)cc2OC)[nH]c2ccccc2c1=O (single isomer, unassigned) [Compound 331, 2-[4-tert-butyl-2-(4-fluoro-2-methoxy-phenoxy)-6-methyl-phenyl]-3-isopropenyl-1H-quinolin-4-one]
0.5 to 2	Cc1c(C(F)(F)F)cnc(Oc2ccc(F)c(F)c2CO)c1-c1cc(=O)c2c(C(N)=O)nccc2[nH]1 [Compound 346, 2-[2-[3,4-difluoro-2-(hydroxymethyl)phenoxy]-4-methyl-5-(trifluoromethyl)-3-pyridyl]-4-oxo-1H-1,6-naphthyridine-5-carboxamide]
0.5 to 2	COc1cc(F)ccc1Oc1cc(C(C)(C)C)cc(C)c1-c1[nH]c2ccccc2c(=O)c1Cl (single isomer, unassigned) [Compound 312, 2-[4-tert-butyl-2-(4-fluoro-2-methoxy-phenoxy)-6-methyl-phenyl]-3-chloro-1H-quinolin-4-one]
2 to 5	COc1cc(F)ccc1Oc1cc(C(C)(C)C)cc(C)c1-c1[nH]c2ccccc2c(=O)c1C (single isomer, unassigned) [Compound 334, 2-[4-tert-butyl-2-(4-fluoro-2-methoxy-phenoxy)-6-methyl-phenyl]-3-methyl-1H-quinolin-4-one]
0.5 to 2	COc1cc(F)ccc1Oc1cc(C(C)(C)C)cc(C)c1-c1[nH]c2ccccc2c(=O)c1Br (single isomer, unassigned) [Compound 320, 3-bromo-2-[4-tert-butyl-2-(4-fluoro-2-methoxy-phenoxy)-6-methyl-phenyl]-1H-quinolin-4-one]
0.5 to 2	NC(=O)c1nccc2[nH]c(-c3cc(F)c(C(F)(F)F)cc3Oc3ccc(F)c(F)c3O)cc(=O)c12 [Compound 347, 2-[2-(3,4-difluoro-2-hydroxy-phenoxy)-5-fluoro-4-(trifluoromethyl)phenyl]-4-oxo-1H-1,6-naphthyridine-5-carboxamide]

Second part, the compound before the results:

SMILES	IC50 [µM]
O=c1cc(-c2ccccc2OCc2ccccc2)[nH]c2ccccc12 [Compound 3, 2-(2-benzyloxyphenyl)-1H-quinolin-4-one]	0.5 to 2
COc1cc(F)ccc1Oc1cc(C(C)(C)C)cc(C)c1-c1cc(=O)n2ccccc2n1 [Compound 37, 2-[4-tert-butyl-2-(4-fluoro-2-methoxy-phenoxy)-6-methyl-phenyl]pyrido[1,2-a]pyrimidin-4-one]	≥ 5
O=c1cc(-c2ccccc2C2CC2)[nH]c2ccccc12 [Compound 1, 2-(2-cyclopropylphenyl)-1H-quinolin-4-one]	≥ 5
O=c1cc(-c2ccccc2OCC2CC2)[nH]c2ccccc12 [Compound 2, 2-[2-(cyclopropylmethoxy)phenyl]-1H-quinolin-4-one]	≥ 5
Cc1c(Oc2ncc(C(F)(F)F)c(C)c2-c2cc(=O)c3c(NC(C)(C)CO)nccc3[nH]2)ccc(F)c1F [Compound 170, 2-[2-(3,4-difluoro-2-methyl-phenoxy)-4-methyl-5-(trifluoromethyl)-3-pyridyl]-5-[(2-hydroxy-1,1-dimethyl-ethyl)amino]-1H-1,6-naphthyridin-4-one]	0.5 to 2
COc1cc(F)ccc1Oc1cc(C(C)(C)C)cc(C)c1-c1nc(=O)c2ccccc2[nH]1 [Compound 28, 2-[4-tert-butyl-2-(4-fluoro-2-methoxy-phenoxy)-6-methyl-phenyl]-1H-quinazolin-4-one]	0.5 to 2
O=c1cc(-c2cc(Cl)c(C(F)(F)F)nc2N2CCCC(F)(F)CC2)[nH]c2c(F)cccc12 [Compound 95, 2-[5-chloro-2-(4,4-difluoroazepan-1-yl)-6-(trifluoromethyl)-3-pyridyl]-8-fluoro-1H-quinolin-4-one]	0.5 to 2
Cc1c(Oc2ncc(C(F)(F)F)c(C)c2-c2cc(=O)c3c(N4CC(O)C4)nccc3[nH]2)ccc(F)c1F [Compound 179, 2-[2-(3,4-difluoro-2-methyl-phenoxy)-4-methyl-5-(trifluoromethyl)-3-pyridyl]-5-(3-hydroxyazetidin-1-yl)-1H-1,6-naphthyridin-4-one]	0.5 to 2
NC(=O)c1nccc2[nH]c(-c3cc4ccccc4nc3N3CCC(F)(F)C3)cc(=O)c12 [Compound 281, 2-[2-(3,3-difluoropyrrolidin-1-yl)-3-quinolyl]-4-oxo-1H-1,6-naphthyridine-5-carboxamide]	0.5 to 2
COC1CCC(c2cc(C(C)(C)C)ncc2-c2cc(=O)c3c(C(N)=O)nccc3[nH]2)CC1 (stereo not drawn) [Compound 133, 2-[6-tert-butyl-4-(4-methoxycyclohexyl)-3-pyridyl]-4-oxo-1H-1,6-naphthyridine-5-carboxamide]	0.5 to 2
O=c1cc(-c2ccccc2OCc2cccc(F)c2)[nH]c2ccccc12 [Compound 4, 2-[2-[(3-fluorophenyl)methoxy]phenyl]-1H-quinolin-4-one]	0.5 to 2
Cc1cc(-c2cc(=O)c3c(C)nccc3[nH]2)c(N2CCCC(F)(F)CC2)nc1C(F)(F)F [Compound 193, 2-[2-(4,4-difluoroazepan-1-yl)-5-methyl-6-(trifluoromethyl)-3-pyridyl]-5-methyl-1H-1,6-naphthyridin-4-one]	≥ 5
O=c1[nH]c(-c2nc(C(F)(F)F)ccc2N2CCCC(F)(F)CC2)nc2ccccc12 [Compound 153, 2-[3-(4,4-difluoroazepan-1-yl)-6-(trifluoromethyl)-2-pyridyl]-3H-quinazolin-4-one]	≥ 5
O=c1cc(-c2ccccc2OCc2ccc(F)cc2)[nH]c2ccccc12 [Compound 6, 2-[2-[(4-fluorophenyl)methoxy]phenyl]-1H-quinolin-4-one]	2 to 5
COc1cc(F)ccc1Oc1cc(C(C)(C)C)cc(C)c1-c1nc2cccc(F)c2c(=O)[nH]1 [Compound 38, 2-[4-tert-butyl-2-(4-fluoro-2-methoxy-phenoxy)-6-methyl-phenyl]-5-fluoro-3H-quinazolin-4-one]	0.5 to 2
COc1cc(F)ccc1Oc1cc(C(C)(C)C)cc(C)c1-c1cc(=O)c2cccc(C)c2[nH]1 [Compound 32, 2-[4-tert-butyl-2-(4-fluoro-2-methoxy-phenoxy)-6-methyl-phenyl]-8-methyl-1H-quinolin-4-one]	0.5 to 2
CC(C)(C)n1cc(-c2cc(=O)c3c(C(N)=O)nccc3[nH]2)c(C2CCC(F)(F)CC2)n1 [Compound 138, 2-[1-tert-butyl-3-(4,4-difluorocyclohexyl)pyrazol-4-yl]-4-oxo-1H-1,6-naphthyridine-5-carboxamide]	0.5 to 2
Cc1c(Oc2ncc(C(F)(F)F)c(C)c2-c2cc(=O)c3c(N4Cc5cn[nH]c5C4)nccc3[nH]2)ccc(F)c1F [Compound 175, 2-[2-(3,4-difluoro-2-methyl-phenoxy)-4-methyl-5-(trifluoromethyl)-3-pyridyl]-5-(4,6-dihydro-1H-pyrrolo[3,4-c]pyrazol-5-yl)-1H-1,6-naphthyridin-4-one]	0.5 to 2
